Measurements published in patent US20190256929A1, “PHARMACODYNAMIC BIOMARKERS FOR PERSONALIZED CANCER CARE USING EPIGENETIC MODIFYING AGENTS” (ORYZON GENOMICS, S.A., priority 2016, published 2019).

Tested on: small cell lung cancer cell lines
Experiment: qRT-PCR time- and dosage-dependent expression change of candidate PD markers ASCL1, GRP, NOTCH1 in SCLC cell lines
Format: cell-based, human
Experimental: Seven small cell lung cancer cell lines were treated with 0.1 nM, 1 nM and 10 nM (trans)-N1-((1R,2S)-2-phenylcyclopropyl)cyclohexane-1,4-diamine or vehicle 24 hr, 96 hr and 7 days. Lysates were prepared by lysis in RNA lysis buffer containing 1% β-mercaptoethanol. RNA extraction was performed using a Maxwell 16 instrument and a Maxwell 16 LEV simply RNA cells Kit (Promega), according to the manufacturer's instructions. The mRNA expression levels of each cell line after treatment were then measured using qRT-PCR. The RT-qPCR reaction was conducted using a one-step kit (ABI), with a duplexed house-keeping control (Assay ID Hs02800695_m1) using the assays in the table below. The log 2 fold changes for each gene were calculated by comparing with the vehicle controlled samples at 24 hr sampling point.
Table 6 contains the dose-dependent effect on expression changes for candidate PD markers ASCL1 (Assay ID Hs04187546_g1), GRP (Assay ID Hs01107047_m1) and NOTCH1 (Assay ID Hs01062014_m1).

[1] = LSD1i responsive cell lines, qRT-PCR
[2] = NCI-H69, 0.1 nM, 24 hrs, vs vehicle at 24 hr
[3] = NCI-H69, 0.1 nM, 96 hrs, vs vehicle at 24 hr
[4] = NCI-H69, 0.1 nM, 168 hrs, vs vehicle at 24 hr
[5] = NCI-H69, 1 nM, 24 hrs, vs vehicle at 24 hr
[6] = NCI-H69, 1 nM, 96 hrs, vs vehicle at 24 hr
[7] = NCI-H69, 1 nM, 168 hrs, vs vehicle at 24 hr
[8] = NCI-H69, 10 nM, 24 hrs, vs vehicle at 24 hr
[9] = NCI-H69, 10 nM, 96 hrs, vs vehicle at 24 hr
[10] = NCI-H69, 10 nM, 168 hrs, vs vehicle at 24 hr

N[C@H]1CC[C@H](N[C@@H]2C[C@H]2c2ccccc2)CC1 [RG6016, (trans)-N1-((1R,2S)-2-phenylcyclopropyl)cyclohexane-1,4-diamine]
Log2_FC ASCL1 (DMS-114, 0.1 nM, 24 hrs): −0.28 | Log2_FC GRP (DMS-114, 0.1 nM, 24 hrs): 0.32 | Log2_FC NOTCH1 (DMS-114, 0.1 nM, 24 hrs): −0.47 | Log2_FC ASCL1 (DMS-114, 0.1 nM, 96 hrs): 0.18 | Log2_FC GRP (DMS-114, 0.1 nM, 96 hrs): 0.25 | Log2_FC NOTCH1 (DMS-114, 0.1 nM, 96 hrs): −0.11 | Log2_FC ASCL1 (DMS-114, 0.1 nM, 168 hrs): 0.93 | Log2_FC GRP (DMS-114, 0.1 nM, 168 hrs): 0.08 | Log2_FC NOTCH1 (DMS-114, 0.1 nM, 168 hrs): 0.08 | Log2_FC ASCL1 (DMS-114, 1 nM, 24 hrs): −0.50 | Log2_FC GRP (DMS-114, 1 nM, 24 hrs): 0.45 | Log2_FC NOTCH1 (DMS-114, 1 nM, 24 hrs): −0.47 | Log2_FC ASCL1 (DMS-114, 1 nM, 96 hrs): −0.04 | Log2_FC GRP (DMS-114, 1 nM, 96 hrs): −0.34 | Log2_FC NOTCH1 (DMS-114, 1 nM, 96 hrs): −0.23 | Log2_FC ASCL1 (DMS-114, 1 nM, 168 hrs): 1.02 | Log2_FC GRP (DMS-114, 1 nM, 168 hrs): 0.86 | Log2_FC NOTCH1 (DMS-114, 1 nM, 168 hrs): 0.08 | Log2_FC ASCL1 (DMS-114, 10 nM, 24 hrs): −0.52 | Log2_FC GRP (DMS-114, 10 nM, 24 hrs): 0.51 | Log2_FC NOTCH1 (DMS-114, 10 nM, 24 hrs): −0.35 | Log2_FC ASCL1 (DMS-114, 10 nM, 96 hrs): −0.38 | Log2_FC GRP (DMS-114, 10 nM, 96 hrs): 0.67 | Log2_FC NOTCH1 (DMS-114, 10 nM, 96 hrs): −0.30 | Log2_FC ASCL1 (DMS-114, 10 nM, 168 hrs): 0.94 | Log2_FC GRP (DMS-114, 10 nM, 168 hrs): −0.12 | Log2_FC NOTCH1 (DMS-114, 10 nM, 168 hrs): 0.13 | Regulation of ASCL1 (FIG. 8) [1]: down | Regulation of GRP (FIG. 8) [1]: down | Regulation of NOTCH1 (FIG. 8) [1]: up | Log2_FC ASCL1 [2]: −0.47 | Log2_FC GRP [2]: −0.77 | Log2_FC NOTCH1 [2]: −0.17 | Log2_FC ASCL1 [3]: −0.63 | Log2_FC GRP [3]: −1.46 | Log2_FC NOTCH1 [3]: 0.57 | Log2_FC ASCL1 [4]: −0.75 | Log2_FC GRP [4]: −1.26 | Log2_FC NOTCH1 [4]: 0.94 | Log2_FC ASCL1 [5]: −0.71 | Log2_FC GRP [5]: −0.51 | Log2_FC NOTCH1 [5]: 0.26 | Log2_FC ASCL1 [6]: −1.33 | Log2_FC GRP [6]: −2.14 | Log2_FC NOTCH1 [6]: 2.26 | Log2_FC ASCL1 [7]: −1.36 | Log2_FC GRP [7]: −2.12 | Log2_FC NOTCH1 [7]: 2.38 | Log2_FC ASCL1 [8]: −0.80 | Log2_FC GRP [8]: −0.97 | Log2_FC NOTCH1 [8]: 1.33 | Log2_FC ASCL1 [9]: −1.40 | Log2_FC GRP [9]: −2.19 | Log2_FC NOTCH1 [9]: 2.42 | Log2_FC ASCL1 [10]: −1.62 | Log2_FC GRP [10]: −2.85 | Log2_FC NOTCH1 [10]: 3.22 | Log2_FC ASCL1 (NCI-H187, 0.1 nM, 24 hrs): 0.07 | Log2_FC GRP (NCI-H187, 0.1 nM, 24 hrs): 0.16 | Log2_FC NOTCH1 (NCI-H187, 0.1 nM, 24 hrs): −0.27 | Log2_FC ASCL1 (NCI-H187, 0.1 nM, 96 hrs): 0.24 | Log2_FC GRP (NCI-H187, 0.1 nM, 96 hrs): −0.29 | Log2_FC NOTCH1 (NCI-H187, 0.1 nM, 96 hrs): 0.10 | Log2_FC ASCL1 (NCI-H187, 0.1 nM, 168 hrs): 0.11 | Log2_FC GRP (NCI-H187, 0.1 nM, 168 hrs): −0.50 | Log2_FC NOTCH1 (NCI-H187, 0.1 nM, 168 hrs): 0.27 | Log2_FC ASCL1 (NCI-H187, 1 nM, 24 hrs): −0.01 | Log2_FC GRP (NCI-H187, 1 nM, 24 hrs): 0.05 | Log2_FC NOTCH1 (NCI-H187, 1 nM, 24 hrs): 0.49 | Log2_FC ASCL1 (NCI-H187, 1 nM, 96 hrs): 0.05 | Log2_FC GRP (NCI-H187, 1 nM, 96 hrs): −0.03 | Log2_FC NOTCH1 (NCI-H187, 1 nM, 96 hrs): 0.81 | Log2_FC ASCL1 (NCI-H187, 1 nM, 168 hrs): 0.16 | Log2_FC GRP (NCI-H187, 1 nM, 168 hrs): −0.59 | Log2_FC NOTCH1 (NCI-H187, 1 nM, 168 hrs): 0.95 | Log2_FC ASCL1 (NCI-H187, 10 nM, 24 hrs): 0.13 | Log2_FC GRP (NCI-H187, 10 nM, 24 hrs): −0.16 | Log2_FC NOTCH1 (NCI-H187, 10 nM, 24 hrs): 0.42 | Log2_FC ASCL1 (NCI-H187, 10 nM, 96 hrs): 0.13 | Log2_FC GRP (NCI-H187, 10 nM, 96 hrs): −0.61 | Log2_FC NOTCH1 (NCI-H187, 10 nM, 96 hrs): 0.83 | Log2_FC ASCL1 (NCI-H187, 10 nM, 168 hrs): 0.07 | Log2_FC GRP (NCI-H187, 10 nM, 168 hrs): −0.67 | Log2_FC NOTCH1 (NCI-H187, 10 nM, 168 hrs): 1.44 | Log2_FC ASCL1 (NCI-H446, 0.1 nM, 24 hrs): −0.27 | Log2_FC NOTCH1 (NCI-H446, 0.1 nM, 24 hrs): −0.04 | Log2_FC NOTCH1 (NCI-H446, 0.1 nM, 96 hrs): −0.13 | Log2_FC ASCL1 (NCI-H446, 0.1 nM, 168 hrs): −0.56 | Log2_FC NOTCH1 (NCI-H446, 0.1 nM, 168 hrs): −0.40 | Log2_FC ASCL1 (NCI-H446, 1 nM, 24 hrs): 0.00 | Log2_FC NOTCH1 (NCI-H446, 1 nM, 24 hrs): −0.02 | Log2_FC ASCL1 (NCI-H446, 1 nM, 96 hrs): −0.20 | Log2_FC NOTCH1 (NCI-H446, 1 nM, 96 hrs): 0.06 | Log2_FC ASCL1 (NCI-H446, 1 nM, 168 hrs): 0.02 | Log2_FC NOTCH1 (NCI-H446, 1 nM, 168 hrs): 0.29 | Log2_FC ASCL1 (NCI-H446, 10 nM, 24 hrs): −0.34 | Log2_FC NOTCH1 (NCI-H446, 10 nM, 24 hrs): 0.04 | Log2_FC NOTCH1 (NCI-H446, 10 nM, 96 hrs): 0.16 | Log2_FC ASCL1 (NCI-H446, 10 nM, 168 hrs): 0.58 | Log2_FC NOTCH1 (NCI-H446, 10 nM, 168 hrs): 0.42 | Log2_FC NOTCH1 (NCI-H510A, 0.1 nM, 24 hrs, vs vehicle at 24 hr): 0.53 | Log2_FC NOTCH1 (NCI-H510A, 0.1 nM, 96 hrs, vs vehicle at 24 hr): 1.93 | Log2_FC NOTCH1 (NCI-H510A, 0.1 nM, 168 hrs, vs vehicle at 24 hr): 3.00 | Log2_FC ASCL1 (NCI-H510A, 0.1 nM, 24 hrs): 0.07 | Log2_FC GRP (NCI-H510A, 0.1 nM, 24 hrs): 0.22 | Log2_FC ASCL1 (NCI-H510A, 0.1 nM, 96 hrs): 0.17 | Log2_FC GRP (NCI-H510A, 0.1 nM, 96 hrs): −0.30 | Log2_FC ASCL1 (NCI-H510A, 0.1 nM, 168 hrs): 0.03 | Log2_FC GRP (NCI-H510A, 0.1 nM, 168 hrs): −0.44 | Log2_FC ASCL1 (NCI-H510A, 1 nM, 24 hrs): −0.23 | Log2_FC GRP (NCI-H510A, 1 nM, 24 hrs): −0.30 | Log2_FC NOTCH1 (NCI-H510A, 1 nM, 24 hrs): 1.19 | Log2_FC ASCL1 (NCI-H510A, 1 nM, 96 hrs): −0.50 | Log2_FC GRP (NCI-H510A, 1 nM, 96 hrs): −1.75 | Log2_FC NOTCH1 (NCI-H510A, 1 nM, 96 hrs): 2.87
